Assay results as given in patent publication US20160355530A1, “HEPATITIS C INHIBITORS AND USES THEREOF” (AbbVie Inc., priority 2010, published 2016).
Where two headings read alike, the source gives them in different places.

Tests used:
[1] = test system: chimeric replicon with genotype 2b NS5B; test: microbe, parasite or virus in culture; format: cell-based, HCV genotype 2b; conditions: Hepatitis C virus, read-out: 2b chimera 5% FBS EC50
[2] = test system: chimeric replicon with 2a-J6CF-derived NS5B; test: microbe, parasite or virus in culture; format: cell-based, HCV genotype 2a; conditions: Hepatitis C virus, read-out: 2a chimera 5% FBS EC50
[3] = molecular target: T1, HCV NS5B polymerase 1a-H77 (Hepatitis C virus genotype 1a, UniProt P27958); test: biochemical; parameters: species or system HCV genotype 1a; conditions: enzyme, strain 1a H77; read-out: HCV Polymerase Strain 1a H77 IC50
T1 construct: six-histidine tag; made in house; host or cells: E. coli
In short: (§1)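 Incorporation of [3H]UTP (0.284 μM), alongside 20 μM each CTP and ATP, into RNA copied from a 5 nM 2.1 kb genotype 1b negative-strand template was measured after 3 h at 30° C using purified His-tagged NS5B truncated at residue 570. Product was spermine-precipitated, filtered and scintillation-counted; nonlinear regression gave IC50.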

[4] = test system: HCV NS5B polymerase 1a-H77-C316Y; test: biochemical; parameters: species or system HCV genotype 1a; conditions: ratio of enzyme IC50s, 1a H77-C316Y / 1a H77
In short: as §1

[5] = molecular target: T2, HCV NS5B polymerase 1a-H77-C316Y (Hepatitis C virus genotype 1a, UniProt P27958, C2736Y); test: biochemical; parameters: species or system HCV genotype 1a
T2 construct: six-histidine tag; made in house; host or cells: E. coli
In short: as §1

[6] = test system: chimeric replicon with genotype 3a NS5B; test: microbe, parasite or virus in culture; format: cell-based, HCV genotype 3a; conditions: Hepatitis C virus, read-out: 3a chimera 5% FBS EC50
[7] = test system: HCV 1b-BB7 subgenomic replicon; test: microbe, parasite or virus in culture; format: cell-based, HCV genotype 1b; conditions: Hepatitis C virus, stable replicon
[8] = test system: HCV 1a-H77 subgenomic replicon; test: microbe, parasite or virus in culture; format: cell-based, HCV genotype 1a; conditions: Hepatitis C virus, stable replicon
[9] = molecular target: T3, HCV NS5B polymerase 1b BK strain (Hepatitis C virus genotype 1b, UniProt P26663); test: HCV NS5B polymerase enzymatic inhibition assay, strain 1b BK; format: biochemical; conditions: enzyme, strain 1b BK; read-out: HCV Polymerase Strain 1b BK IC50
T3 construct: six-histidine tag; made in house; host or cells: E. coli
In short: as §1

[10] = test system: chimeric replicon with genotype 4a NS5B; test: microbe, parasite or virus in culture; format: cell-based, HCV genotype 4a; conditions: Hepatitis C virus, read-out: 4a chimera 5% FBS EC50
[11] = strain 1b BB7, 5% FBS + 40% human plasma, read-out: 1b BB7 5% FBS + 40% Human Plasma EC50
[12] = strain 1b BB7, 5% FBS, no human plasma, read-out: 1b BB7 5% FBS EC50
[13] = strain 1b BB7, 5% FBS, read-out: 1b BB7 5% FBS EC50
[14] = 5% FBS, absence of human plasma, read-out: Stable Replicon 1a H77 5% FBS EC50
[15] = strain 1a H77, 5% FBS + 40% human plasma, read-out: 1a H77 5% FBS + 40% Human Plasma EC50
[16] = strain 1a H77, 5% FBS, no human plasma, read-out: 1a H77 5% FBS EC50
[17] = strain 1a H77, 5% FBS, read-out: 1a H77 5% FBS EC50

T1 sequence (P27958 2421-2990): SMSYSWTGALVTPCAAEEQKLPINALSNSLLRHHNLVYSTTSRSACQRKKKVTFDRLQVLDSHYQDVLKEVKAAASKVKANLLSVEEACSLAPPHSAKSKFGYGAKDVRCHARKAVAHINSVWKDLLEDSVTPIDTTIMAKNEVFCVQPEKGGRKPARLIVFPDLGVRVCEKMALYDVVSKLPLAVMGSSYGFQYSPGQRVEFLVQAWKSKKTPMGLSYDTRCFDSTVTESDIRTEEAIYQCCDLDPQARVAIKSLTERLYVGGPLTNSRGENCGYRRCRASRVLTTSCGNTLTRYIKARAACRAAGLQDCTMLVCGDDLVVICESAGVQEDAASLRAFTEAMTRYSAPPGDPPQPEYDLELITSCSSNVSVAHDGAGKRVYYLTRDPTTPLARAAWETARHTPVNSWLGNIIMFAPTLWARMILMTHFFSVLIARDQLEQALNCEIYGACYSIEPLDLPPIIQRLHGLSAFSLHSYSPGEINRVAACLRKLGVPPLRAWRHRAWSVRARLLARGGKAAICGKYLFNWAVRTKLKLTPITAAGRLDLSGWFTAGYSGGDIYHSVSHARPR
T3 sequence (P26663 2420-2989): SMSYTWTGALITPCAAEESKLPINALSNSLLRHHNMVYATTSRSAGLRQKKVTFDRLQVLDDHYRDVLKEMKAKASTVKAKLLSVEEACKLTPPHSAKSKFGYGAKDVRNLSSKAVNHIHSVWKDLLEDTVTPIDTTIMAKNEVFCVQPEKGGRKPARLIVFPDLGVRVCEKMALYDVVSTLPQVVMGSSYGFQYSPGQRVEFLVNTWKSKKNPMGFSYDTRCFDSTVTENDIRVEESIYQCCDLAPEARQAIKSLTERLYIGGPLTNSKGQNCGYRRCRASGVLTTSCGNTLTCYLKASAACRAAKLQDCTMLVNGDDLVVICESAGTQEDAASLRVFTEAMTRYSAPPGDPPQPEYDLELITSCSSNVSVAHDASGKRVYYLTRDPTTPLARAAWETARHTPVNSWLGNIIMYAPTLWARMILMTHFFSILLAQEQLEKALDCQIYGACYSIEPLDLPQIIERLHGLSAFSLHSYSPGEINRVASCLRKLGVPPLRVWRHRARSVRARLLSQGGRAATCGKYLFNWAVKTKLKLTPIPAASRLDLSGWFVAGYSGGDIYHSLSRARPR
T2 sequence (P27958 2421-2990 C2736Y): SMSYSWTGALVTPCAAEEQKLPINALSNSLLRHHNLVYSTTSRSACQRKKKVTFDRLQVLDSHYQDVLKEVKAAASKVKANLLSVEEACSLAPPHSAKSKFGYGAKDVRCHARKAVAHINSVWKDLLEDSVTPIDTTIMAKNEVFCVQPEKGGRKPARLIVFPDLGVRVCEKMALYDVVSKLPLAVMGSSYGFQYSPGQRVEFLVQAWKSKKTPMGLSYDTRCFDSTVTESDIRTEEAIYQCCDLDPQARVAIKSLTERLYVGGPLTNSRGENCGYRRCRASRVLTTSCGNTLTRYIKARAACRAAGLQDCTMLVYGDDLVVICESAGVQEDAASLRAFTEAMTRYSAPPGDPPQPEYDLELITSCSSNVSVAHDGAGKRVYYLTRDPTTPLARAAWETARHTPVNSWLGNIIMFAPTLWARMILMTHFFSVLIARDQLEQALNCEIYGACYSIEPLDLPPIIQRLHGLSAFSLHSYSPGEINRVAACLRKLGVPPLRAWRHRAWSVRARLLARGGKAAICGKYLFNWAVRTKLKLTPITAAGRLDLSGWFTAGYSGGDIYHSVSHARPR

Row | SMILES | EC50 [1] [nM] | EC50 [2] [nM] | IC50 [3] [nM] | C316Y/1a Fold Resistance [4] [fold] | IC50 [5] [nM] | EC50 [6] [nM] | EC50 [7, 11] [nM] | EC50 [7, 12] [nM] | EC50 [7, 13] [nM] | EC50 [8, 14] [nM] | EC50 [8, 15] [nM] | EC50 [8, 16] [nM] | EC50 [8, 17] [nM] | IC50 [9] [nM] | EC50 [10] [nM]
1 | CS(=O)(=O)N(CC1CC1)c1cc2oc(-c3ccc(F)cc3)c(-c3ncc[nH]3)c2cc1C1CC1 [Example 53, N-[5-cyclopropyl-2-(4-fluorophenyl)-3-(1H-imidazol-2-yl)-1-benzofuran-6-yl]-N-(cyclopropylmethyl)methanesulfonamide] | 267 | 154 | 4.9 | 46 | 223 | 23 | 224 | 52 | 52 | 111 | 1010 | 111 | 111 | 245 | 379
2 | CC(C)(O)CCN(c1cc2oc(-c3ccc(F)cc3)c(C3=NOCCN3)c2cc1C1CC1)S(C)(=O)=O [Example 125, N-[5-cyclopropyl-3-(5,6-dihydro-4H-1,2,4-oxadiazin-3-yl)-2-(4-fluorophenyl)-1-benzofuran-6-yl]-N-(3-hydroxy-3-methylbutyl)methanesulfonamide] | 182 | 222 | 11 | 10 | 112 | 50 | 347 | 20 | 20 | 12.6 | 156 | 12.6 | 12.6 | 60 | 85
3 | CCCCCCN(c1cc2oc(-c3ccc(F)cc3)c(-c3ncc[nH]3)c2cc1C1CC1)S(C)(=O)=O [Example 71, N-[5-cyclopropyl-2-(4-fluorophenyl)-3-(1H-imidazol-2-yl)-1-benzofuran-6-yl]-N-hexylmethanesulfonamide] | 377 | 409 | 8.9 | 15 | 136 | 72.5 | 1070 | 39 | 39 | 65.4 | 2290 | 65.4 | 65.4 | 28 | 596
4 | CC(=O)OCCCCCN(c1cc2oc(-c3ccc(F)cc3)c(-c3ncc[nH]3)c2cc1C1CC1)S(C)(=O)=O [Example 46, 5-{[5-cyclopropyl-2-(4-fluorophenyl)-3-(1H-imidazol-2-yl)-1-benzofuran-6-yl](methylsulfonyl)amino}pentyl acetate] | 23.7 | 27.5 | 4.5 | 22 | 98 | 2.7 | 36 | 4.7 | 4.6 | 4.5 | 112 | 4.5 | 4.5 | 11 | 31.1
5 | CC[S+]([O-])CCN(c1cc2oc(-c3ccc(F)cc3)c(C3=NOCCN3)c2cc1C1CC1)S(C)(=O)=O (stereo not drawn) [Example 141, N-[5-cyclopropyl-3-(5,6-dihydro-4H-1,2,4-oxadiazin-3-yl)-2-(4-fluorophenyl)-1-benzofuran-6-yl]-N-[2-(ethylsulfinyl)ethyl]methanesulfonamide] | 1000 | 623 | 15 | 14 | 209 | 53 | 296 | 31 | 31 | 38.5 | 275 | 38.5 | 38.5 | 167 | 621
6 | CS(=O)(=O)N(CCCN1CCCC1)c1cc2oc(-c3ccc(F)cc3)c(C3=NOCCN3)c2cc1C1CC1 [Example 132, N-[5-cyclopropyl-3-(5,6-dihydro-4H-1,2,4-oxadiazin-3-yl)-2-(4-fluorophenyl)-1-benzofuran-6-yl]-N-[3-(pyrrolidin-1-yl)propyl]methanesulfonamide] | 428 | 244 | 22 | 42 | 934 | 93 | 122 | 40 | 40 | 142 | 313 | 142 | 142 | 246 | > 1000
7 | CN(C)C(=O)CCCN(c1cc2oc(-c3ccc(F)cc3)c(-c3ncc[nH]3)c2cc1C1CC1)S(C)(=O)=O [Example 102, 4-{[5-cyclopropyl-2-(4-fluorophenyl)-3-(1H-imidazol-2-yl)-1-benzofuran-6-yl](methylsulfonyl)amino}-N,N-dimethylbutanamide] | 134 | 108 | 7.7 | 22 | 168 | 9.7 | 66 | 10 | 10 | 24.1 | 242 | 24.1 | 24.1 | 47 | 145
8 | C[S+]([O-])CCN(c1cc2oc(-c3ccc(F)cc3)c(C3=NOCCN3)c2cc1C1CC1)S(C)(=O)=O (stereo not drawn) [Example 138, N-[5-cyclopropyl-3-(5,6-dihydro-4H-1,2,4-oxadiazin-3-yl)-2-(4-fluorophenyl)-1-benzofuran-6-yl]-N-[2-(methylsulfinyl)ethyl]methanesulfonamide] | 1000 | 1000 | 9.8 | 24 | 232 | 102 | 270 | 36 | 36 | 46.5 | 183 | 46.5 | 46.5 | 49 | 524
9 | CN(C)CCCN(c1cc2oc(-c3ccc(F)cc3)c(-c3ncc[nH]3)c2cc1C1CC1)S(C)(=O)=O [Example 59, N-[5-cyclopropyl-2-(4-fluorophenyl)-3-(1H-imidazol-2-yl)-1-benzofuran-6-yl]-N-[3-(dimethylamino)propyl]methanesulfonamide] | 127 | 65 | 13.4 | 112 | 1500 | 10.3 | 20 | 11.2 | 11.2 | 85.1 | 159 | 85.1 | 85.1 | 56 | 424
10 | CS(=O)(=O)N(CCCc1nsc(=O)[nH]1)c1cc2oc(-c3ccc(F)cc3)c(C3=NOCCN3)c2cc1C1CC1 [Example 184, N-[5-cyclopropyl-3-(5,6-dihydro-4H-1,2,4-oxadiazin-3-yl)-2-(4-fluorophenyl)-1-benzofuran-6-yl]-N-[3-(5-oxo-4,5-dihydro-1,2,4-thiadiazol-3-yl)propyl]methanesulfonamide] | 353 | 539 | 17 | 35 | 599 | 84 | 1090 | 28 | 28 | 69.7 | 1870 | 69.7 | 69.7 | 156 | 507
